For one data set, the target named is T1, hAMY3 receptor (Homo sapiens, UniProt O60896+P30988).
T1 sequence (P30988 25-474): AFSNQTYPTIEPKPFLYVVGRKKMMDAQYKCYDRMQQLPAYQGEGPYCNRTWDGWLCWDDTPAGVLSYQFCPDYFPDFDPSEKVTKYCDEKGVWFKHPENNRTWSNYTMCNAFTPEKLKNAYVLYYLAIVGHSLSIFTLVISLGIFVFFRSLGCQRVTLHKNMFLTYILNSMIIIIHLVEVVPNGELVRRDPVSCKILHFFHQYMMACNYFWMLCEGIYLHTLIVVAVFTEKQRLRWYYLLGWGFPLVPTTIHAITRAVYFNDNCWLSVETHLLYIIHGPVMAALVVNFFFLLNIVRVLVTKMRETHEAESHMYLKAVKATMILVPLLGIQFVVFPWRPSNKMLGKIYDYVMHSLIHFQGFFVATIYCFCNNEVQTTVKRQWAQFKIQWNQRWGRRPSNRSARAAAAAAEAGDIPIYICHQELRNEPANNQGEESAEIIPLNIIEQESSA
T1 sequence (O60896 24-148 partner): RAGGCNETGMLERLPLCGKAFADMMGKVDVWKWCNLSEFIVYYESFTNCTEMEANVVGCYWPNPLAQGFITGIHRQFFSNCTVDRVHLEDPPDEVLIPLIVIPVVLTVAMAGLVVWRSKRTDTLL
Nature of the data set: cAMP assay for in vitro receptor activation, hAMY3-R. Type of data set: cell-based. The following applies: cAMP assay, hAMY3 receptor; read-out: hAMY3R EC50. In a few lines: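 Receptor activation was measured as cAMP accumulation in a monoclonal cell line stably overexpressing hAMY3. Stimulation with graded doses lasted 30 min at room temperature in the presence of 0.5 mM IBMX, with human amylin as positive control.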
On the technique in general: Changes in cAMP serve as a functional read-out for many G protein-coupled receptors.

Data set [1] in a line: Physical stability of peptide analogues (Thioflavin T fibrillation). The note with it: maximum ThT signal normalized between hAMY maximum and buffer background; 40° C., shaking, four days; pH 7 per table title. Type of data set: physicochemical. The method, boiled down: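 Peptides in 50 mM sodium acetate pH 4 or 50 mM sodium phosphate pH 7 were preincubated 1 h, mixed with 4 μM ThT, held at 40° C with 700 rpm shaking before each read. Fluorescence (ex 450/em 480 nm) every 10 min for four days; LOESS-smoothed maximum signal normalized in percent between hAMY and buffer.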

Molecules are shown by their SMILES. Bridge positions count the residues as written; N and C are the ends. Square brackets hold non-standard residues; d marks the D form. Peptide text beside a SMILES is read from it. Hyp = O=C(O)[C@@H]1C[C@@H](O)CN1

In the case of `CC[C@H](C)[C@H](NC(=O)[C@H](CC(N)=O)NC(=O)[C@H](CO)NC(=O)[C@H](CCCNC(=N)N)NC(=O)[C@@H]1CCCN1C(=O)[C@H](C)NC(=O)[C@@H](NC(=O)[C@H](CC(N)=O)NC(=O)[C@H](CC(=O)O)NC(=O)[C@H](CCCCN)NC(=O)[C@H](CC(=O)O)NC(=O)[C@H](CCCCN)NC(=O)[C@H](CC(=O)O)NC(=O)[C@@H](NC(=O)[C@H](Cc1ccccc1)NC(=O)[C@H](CCC(N)=O)NC(=O)[C@H](Cc1ccc(O)cc1)NC(=O)[C@@H](NC(=O)[C@H](CCC(N)=O)NC(=O)[C@H](Cc1c[nH]cn1)NC(=O)[C@H](C)NC(=O)[C@H](CC(C)C)NC(=O)[C@H](CCCNC(=N)N)NC(=O)[C@H](CCC(N)=O)NC(=O)[C@@H](NC(=O)[C@@H](NC(=O)[C@@H]1CSSC[C@H](NC(=O)CN)C(=O)N[C@@H](CCCNC(=N)N)C(=O)N[C@@H]([C@@H](C)O)C(=O)NCC(=O)N[C@@H]([C@@H](C)O)C(=O)N1)[C@@H](C)O)C(C)C)[C@@H](C)CC)[C@@H](C)O)C(C)C)C(=O)NCC(=O)N1CCC[C@H]1C(=O)N[C@@H](CCC(N)=O)C(=O)NCC(=O)N1C[C@H](O)C[C@H]1C(N)=O` [compound 165] (H-GCRTGTCTVQRLAHQIYQFTDKDKDNVAPRSNIGPQG[Hyp]-NH2; disulfide 2-7; N-terminus assumed), at hAMY3 receptor, the EC50 – broadly, the midpoint of the concentration-response curve – came out at 0.054 nM. For the same molecule, the “Max ThT signal (%)” value in data set [1] is recorded as 4.800%.
For `CC[C@H](C)[C@H](NC(=O)[C@H](CCC(N)=O)NC(=O)[C@H](Cc1c[nH]cn1)NC(=O)[C@H](C)NC(=O)[C@H](CC(C)C)NC(=O)[C@H](CCCNC(=N)N)NC(=O)[C@H](CCC(N)=O)NC(=O)[C@@H](NC(=O)[C@@H](NC(=O)[C@@H]1CSSC[C@H](NC(=O)CN)C(=O)N[C@@H](CCCNC(=N)N)C(=O)N[C@@H]([C@@H](C)O)C(=O)NCC(=O)N[C@@H]([C@@H](C)O)C(=O)N1)[C@@H](C)O)C(C)C)C(=O)N[C@@H](Cc1ccc(O)cc1)C(=O)N[C@@H](CCC(N)=O)C(=O)N[C@@H](Cc1ccccc1)C(=O)N[C@H](C(=O)N[C@@H](CC(=O)O)C(=O)N[C@@H](CCCCN)C(=O)N[C@@H](CC(=O)O)C(=O)N[C@@H](CCCCN)C(=O)N[C@@H](CC(=O)O)C(=O)N[C@@H](CC(N)=O)C(=O)N[C@H](C(=O)N[C@@H](C)C(=O)N1CCC[C@H]1C(=O)N[C@@H](CCCNC(=N)N)C(=O)N[C@@H](CO)C(=O)N[C@@H](CC(N)=O)C(=O)N[C@H](C(=O)N[C@@H](CO)C(=O)N1CCC[C@H]1C(=O)N[C@@H](CC(N)=O)C(=O)NCC(=O)N1C[C@H](O)C[C@H]1C(N)=O)C(C)C)C(C)C)[C@@H](C)O` [compound 166] (H-GCRTGTCTVQRLAHQIYQFTDKDKDNVAPRSNVSPNG[Hyp]-NH2; disulfide 2-7; N-terminus assumed), the EC50 on hAMY3 receptor worked out at 0.056 nM. Also, the “Max ThT signal (%)” value in data set [1] turned out to be 2.000%.
With `CC[C@H](C)[C@H](NC(=O)[C@H](CCC(N)=O)NC(=O)[C@H](Cc1c[nH]cn1)NC(=O)[C@H](C)NC(=O)[C@H](CC(C)C)NC(=O)[C@H](CCCNC(=N)N)NC(=O)[C@H](CCC(N)=O)NC(=O)[C@@H](NC(=O)[C@@H](NC(=O)[C@@H]1CSSC[C@H](NC(=O)CN)C(=O)N[C@@H](CCCNC(=N)N)C(=O)N[C@@H](Cc2ccccc2)C(=O)NCC(=O)N[C@@H]([C@@H](C)O)C(=O)N1)[C@@H](C)O)C(C)C)C(=O)N[C@@H](Cc1ccc(O)cc1)C(=O)N[C@@H](CCC(N)=O)C(=O)N[C@@H](Cc1ccccc1)C(=O)N[C@H](C(=O)N[C@@H](CC(=O)O)C(=O)N[C@@H](CCCCN)C(=O)N[C@@H](CC(=O)O)C(=O)N[C@@H](CCCCN)C(=O)N[C@@H](CC(=O)O)C(=O)N[C@@H](CC(N)=O)C(=O)N[C@H](C(=O)N[C@@H](C)C(=O)N1CCC[C@H]1C(=O)N[C@@H](CCCNC(=N)N)C(=O)N[C@@H](CO)C(=O)N[C@@H](CCCCN)C(=O)N[C@H](C(=O)N[C@@H](CO)C(=O)N1CCC[C@H]1C(=O)N[C@@H](CCC(N)=O)C(=O)NCC(=O)N1C[C@H](O)C[C@H]1C(N)=O)C(C)C)C(C)C)[C@@H](C)O` [compound 167] (H-GCRFGTCTVQRLAHQIYQFTDKDKDNVAPRSKVSPQG[Hyp]-NH2; disulfide 2-7; N-terminus assumed), at hAMY3 receptor, the concentration giving a half-maximal response (EC50) was 0.056 nM. Besides, the “Max ThT signal (%)” value in data set [1] came to 6.600%.
The corresponding values for `CC[C@H](C)[C@H](NC(=O)[C@H](CCC(N)=O)NC(=O)[C@H](Cc1c[nH]cn1)NC(=O)[C@H](C)NC(=O)[C@H](CC(C)C)NC(=O)[C@H](CCCNC(=N)N)NC(=O)[C@H](CCC(N)=O)NC(=O)[C@@H](NC(=O)[C@@H](NC(=O)[C@@H]1CSSC[C@H](NC(=O)CN)C(=O)N[C@@H](CCCNC(=N)N)C(=O)N[C@@H]([C@@H](C)O)C(=O)NCC(=O)N[C@@H]([C@@H](C)O)C(=O)N1)[C@@H](C)O)C(C)C)C(=O)N[C@@H](Cc1ccc(O)cc1)C(=O)N[C@@H](CCC(N)=O)C(=O)N[C@@H](Cc1ccccc1)C(=O)N[C@H](C(=O)N[C@@H](CC(=O)O)C(=O)N[C@@H](CCCCN)C(=O)N[C@@H](CC(=O)O)C(=O)N[C@@H](CCCCN)C(=O)N[C@@H](CC(=O)O)C(=O)N[C@@H](CC(N)=O)C(=O)N[C@H](C(=O)N[C@@H](C)C(=O)N1CCC[C@H]1C(=O)N[C@@H](CCCNC(=N)N)C(=O)N[C@H](C(=O)N[C@@H](CC(N)=O)C(=O)N[C@H](C(=O)N[C@@H](CO)C(=O)N1CCC[C@H]1C(=O)N[C@@H](CC(N)=O)C(=O)NCC(=O)N1C[C@H](O)C[C@H]1C(N)=O)[C@@H](C)CC)[C@@H](C)O)C(C)C)[C@@H](C)O` [compound 170] (H-GCRTGTCTVQRLAHQIYQFTDKDKDNVAPRTNISPNG[Hyp]-NH2; disulfide 2-7) are 0.064 nM and 1.800%.
The matching figures for `CC[C@H](C)[C@H](NC(=O)[C@H](CCC(N)=O)NC(=O)[C@H](Cc1c[nH]cn1)NC(=O)[C@H](C)NC(=O)[C@H](CC(C)C)NC(=O)[C@H](CCCNC(=N)N)NC(=O)[C@H](CCC(N)=O)NC(=O)[C@@H](NC(=O)[C@@H](NC(=O)[C@@H]1CSSC[C@H](NC(=O)CN)C(=O)N[C@@H](CCCNC(=N)N)C(=O)N[C@@H]([C@@H](C)O)C(=O)NCC(=O)N[C@@H]([C@@H](C)O)C(=O)N1)[C@@H](C)O)C(C)C)C(=O)N[C@@H](Cc1ccc(O)cc1)C(=O)N[C@@H](CCC(N)=O)C(=O)N[C@@H](Cc1ccccc1)C(=O)N[C@H](C(=O)N[C@@H](CC(=O)O)C(=O)N[C@@H](CCCCN)C(=O)N[C@@H](CC(=O)O)C(=O)N[C@@H](CCCCN)C(=O)N[C@@H](CC(=O)O)C(=O)N[C@@H](CC(N)=O)C(=O)N[C@H](C(=O)N[C@@H](C)C(=O)N1CCC[C@H]1C(=O)N[C@@H](CCCNC(=N)N)C(=O)N[C@H](C(=O)N[C@@H](CC(N)=O)C(=O)N[C@H](C(=O)N[C@@H](CO)C(=O)N1CCC[C@H]1C(=O)N[C@@H](CCC(N)=O)C(=O)NCC(=O)N[C@@H](Cc1ccc(O)cc1)C(N)=O)C(C)C)[C@@H](C)O)C(C)C)[C@@H](C)O` [compound 176] (H-GCRTGTCTVQRLAHQIYQFTDKDKDNVAPRTNVSPQGY-NH2; disulfide 2-7; N-terminus assumed): 0.076 nM and 6.800%.
The corresponding values for `CC[C@H](C)[C@H](NC(=O)[C@H](CCC(N)=O)NC(=O)[C@H](Cc1c[nH]cn1)NC(=O)[C@H](C)NC(=O)[C@H](CC(C)C)NC(=O)[C@H](CCCNC(=N)N)NC(=O)[C@H](CCC(N)=O)NC(=O)[C@@H](NC(=O)[C@@H](NC(=O)[C@@H]1CSSC[C@H](NC(=O)CN)C(=O)N[C@@H](CCCNC(=N)N)C(=O)N[C@@H](Cc2ccccc2)C(=O)NCC(=O)N[C@@H]([C@@H](C)O)C(=O)N1)[C@@H](C)O)C(C)C)C(=O)N[C@@H](Cc1ccc(O)cc1)C(=O)N[C@@H](CCC(N)=O)C(=O)N[C@@H](Cc1ccccc1)C(=O)N[C@H](C(=O)N[C@@H](CC(=O)O)C(=O)N[C@@H](CCCCN)C(=O)N[C@@H](CC(=O)O)C(=O)N[C@@H](CCCCN)C(=O)N[C@@H](CC(=O)O)C(=O)N[C@@H](CC(N)=O)C(=O)N[C@H](C(=O)N[C@@H](C)C(=O)N1CCC[C@H]1C(=O)N[C@@H](CCCNC(=N)N)C(=O)N[C@@H](CO)C(=O)N[C@@H](CC(N)=O)C(=O)N[C@H](C(=O)N[C@@H](CO)C(=O)N1CCC[C@H]1C(=O)N[C@@H](CCC(N)=O)C(=O)NCC(=O)N[C@@H](Cc1ccc(O)cc1)C(N)=O)[C@@H](C)CC)C(C)C)[C@@H](C)O` [compound 182] (H-GCRFGTCTVQRLAHQIYQFTDKDKDNVAPRSNISPQGY-NH2; disulfide 2-7; N-terminus assumed) are 0.085 nM and 15.600%.

Source of the values: US12139520B2 (priority 2020, dated 2024).
